The source of these data is US20260022142A1, “MACROCYCLIC IMMUNOMODULATORS” (Bristol-Myers Squibb Company, priority 2022, published 2026).

Bridge positions count the residues as written; N and C are the ends. Square brackets hold non-standard residues; d marks the D form. Peptide text beside a SMILES is read from it. * marks the point of attachment. Ala(indol-2-yl) = N[C@@H](Cc1cc2ccccc2[nH]1)C(=O)O; Bip = N[C@@H](Cc1ccc(-c2ccccc2)cc1)C(=O)O; Phe(3-Me) = Cc1cccc(C[C@H](N)C(=O)O)c1; Cha = N[C@@H](CC1CCCCC1)C(=O)O; dCha = N[C@H](CC1CCCCC1)C(=O)O; dNle = CCCC[C@@H](N)C(=O)O; Carboxymethyl = O=C(O)C*; Orn = NCCC[C@H](N)C(=O)O; Aun = NCCCCCCCCCCC(=O)O; Dab = NCC[C@H](N)C(=O)O; Dap = NC[C@H](N)C(=O)O; AEEA = NCCOCCOCC(=O)O

The target in this assay is T1, PD-1/PD-L1 interaction (PE-labeled human PD-L1-Ig binding to Jurkat cell line over-expressing human PD-1) (Homo sapiens, UniProt Q15116).
T1 construct: expressed in transfected cells; host or cells: Jurkat
T1 sequence (Q15116 25-288): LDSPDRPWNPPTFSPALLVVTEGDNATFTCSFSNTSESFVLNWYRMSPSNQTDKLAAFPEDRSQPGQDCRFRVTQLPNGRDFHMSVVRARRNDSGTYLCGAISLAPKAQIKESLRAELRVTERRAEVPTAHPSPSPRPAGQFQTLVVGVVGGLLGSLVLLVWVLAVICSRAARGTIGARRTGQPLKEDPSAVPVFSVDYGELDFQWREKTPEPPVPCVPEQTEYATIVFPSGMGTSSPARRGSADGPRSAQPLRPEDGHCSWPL
As to the kind of experiment: Jurkat-PD-1 Cell Binding High-Content Screening Assay (CBA). Format: cell-based. The conditions noted are these: Jurkat cell line over-expressing human PD-1; PE-labeled PD-L1-Ig 20 nM final; read-out: Jurkat hPD1-PDL1 IC50. In short, it runs like this:
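Human PD-L1-Ig carrying a covalent PE label on its Ig tag serves as the probe, applied at 20 nM final to compound-treated (2 h, 37° C) Jurkat-hPD-1 cells in medium with 10% fetal calf serum. After one hour, fixation and nuclear staining precede high-content image analysis.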
`CC(C)[C@@H]1NC(=O)[C@H](CC2CCCCC2)NC(=O)[C@H](CCN)NC(=O)[C@@H](CC2CCCCC2)NC(=O)[C@H](CCCN)NC(=O)[C@H](C(C)C)NC(=O)[C@H](Cc2ccc(-c3ccccc3)cc2)NC(=O)[C@H](C(C)C)NC(=O)[C@H](Cc2c[nH]c3ccccc23)NC(=O)[C@H](CC(=O)O)NC(=O)[C@H](Cc2ccc(OCC(=O)O)cc2)NC(=O)[C@H](CN)NC(=O)CSC[C@@H](C(=O)NCCOCCOCC(=O)N[C@@H](CCN)C(=O)NCCCCCCCCCCC(=O)O)NC(=O)[C@H](CCCCN)NC1=O` [Compound 2673] ({CH2CO}-[Dap]Y(Carboxymethyl)DWV[Bip]V[Orn][dCha][Dab][Cha]VKC[AEEA][Dab][Aun]-OH; thioether N-14): the IC50 (as a rule, the concentration that gives 50% inhibition) amounted to 0.0225 µM. `CCCC[C@H]1NC(=O)[C@H](CCCN)NC(=O)[C@H](C(C)C)NC(=O)[C@H](Cc2ccc(-c3ccccc3)cc2)NC(=O)[C@H](C(C)C)NC(=O)[C@H](Cc2cccc(C)c2)NC(=O)[C@H](CC(=O)O)NC(=O)[C@H](Cc2ccc(OCC(=O)O)cc2)NC(=O)[C@H](CN)NC(=O)CSC[C@@H](C(=O)NCCOCCOCC(=O)N[C@@H](CCN)C(=O)NCCCCCCCCCCC(=O)O)NC(=O)[C@H](CN)NC(=O)[C@H](C(C)C)NC(=O)[C@H](CC2CCCCC2)NC(=O)[C@H](CCN)NC1=O` [Compound 2674] ({CH2CO}-[Dap]Y(Carboxymethyl)D[Phe(3-Me)]V[Bip]V[Orn][dNle][Dab][Cha]V[Dap]C[AEEA][Dab][Aun]-OH; thioether N-14): the IC50 was found to be 0.012 µM.

As to `Cc1cccc(C[C@@H]2NC(=O)[C@H](CC(=O)O)NC(=O)[C@H](Cc3ccc(OCC(=O)O)cc3)NC(=O)[C@H](CN)NC(=O)CSC[C@@H](C(=O)NCCOCCOCC(=O)N[C@@H](CCN)C(=O)NCCCCCCCCCCC(=O)O)NC(=O)[C@H](CN)NC(=O)[C@H](C(C)C)NC(=O)[C@H](CC3CCCCC3)NC(=O)[C@H](CCN)NC(=O)[C@@H](CC3CCCCC3)NC(=O)[C@H](CCCN)NC(=O)[C@H](C(C)C)NC(=O)[C@H](Cc3ccc(-c4ccccc4)cc3)NC(=O)[C@H](C(C)C)NC2=O)c1` [Compound 2675] ({CH2CO}-[Dap]Y(Carboxymethyl)D[Phe(3-Me)]V[Bip]V[Orn][dCha][Dab][Cha]V[Dap]C[AEEA][Dab][Aun]-OH; thioether N-14), the half-maximal inhibitory concentration (IC50) was found to be 0.0241 µM. The value for `CCCC[C@H]1NC(=O)[C@H](CCCN)NC(=O)[C@H](C(C)C)NC(=O)[C@H](Cc2ccc(-c3ccccc3)cc2)NC(=O)[C@H](C(C)C)NC(=O)[C@H](Cc2cccc(C)c2)NC(=O)[C@H](CC(=O)O)NC(=O)[C@H](Cc2ccc(OCC(=O)O)cc2)NC(=O)[C@H](CN)NC(=O)CSC[C@@H](C(=O)NCCOCCOCC(=O)N[C@@H](CCN)C(=O)NCCCCCCCCCCC(=O)O)NC(=O)[C@H](CCCN)NC(=O)[C@H](C(C)C)NC(=O)[C@H](CC2CCCCC2)NC(=O)[C@H](CCN)NC1=O` [Compound 2676] ({CH2CO}-[Dap]Y(Carboxymethyl)D[Phe(3-Me)]V[Bip]V[Orn][dNle][Dab][Cha]V[Orn]C[AEEA][Dab][Aun]-OH; thioether N-14) was 0.0102 µM; that for `Cc1cccc(C[C@@H]2NC(=O)[C@H](CC(=O)O)NC(=O)[C@H](Cc3ccc(OCC(=O)O)cc3)NC(=O)[C@H](CN)NC(=O)CSC[C@@H](C(=O)NCCOCCOCC(=O)N[C@@H](CCN)C(=O)NCCCCCCCCCCC(=O)O)NC(=O)[C@H](CCCN)NC(=O)[C@H](C(C)C)NC(=O)[C@H](CC3CCCCC3)NC(=O)[C@H](CCN)NC(=O)[C@@H](CC3CCCCC3)NC(=O)[C@H](CCCN)NC(=O)[C@H](C(C)C)NC(=O)[C@H](Cc3ccc(-c4ccccc4)cc3)NC(=O)[C@H](C(C)C)NC2=O)c1` [Compound 2677] ({CH2CO}-[Dap]Y(Carboxymethyl)D[Phe(3-Me)]V[Bip]V[Orn][dCha][Dab][Cha]V[Orn]C[AEEA][Dab][Aun]-OH; thioether N-14) was 0.018 µM.

With `CCCC[C@H]1NC(=O)[C@H](CCCN)NC(=O)[C@H](C(C)C)NC(=O)[C@H](Cc2ccc(-c3ccccc3)cc2)NC(=O)[C@H](C(C)C)NC(=O)[C@H](Cc2cc3ccccc3[nH]2)NC(=O)[C@H](CC(=O)O)NC(=O)[C@H](Cc2ccc(OCC(=O)O)cc2)NC(=O)[C@H](CN)NC(=O)CSC[C@@H](C(=O)N[C@@H](CCN)C(=O)NCCOCCOCC(=O)NCCCCCCCCCCC(=O)O)NC(=O)[C@H](CCCCN)NC(=O)[C@H](C(C)C)NC(=O)[C@H](CC2CCCCC2)NC(=O)[C@H](CCN)NC1=O` [Compound 2678] ({CH2CO}-[Dap]Y(Carboxymethyl)D[Ala(indol-2-yl)]V[Bip]V[Orn][dNle][Dab][Cha]VKC[Dab][AEEA][Aun]-OH; thioether N-14), the IC50 worked out at 0.0152 µM. For `CC(C)[C@@H]1NC(=O)[C@H](CC2CCCCC2)NC(=O)[C@H](CCN)NC(=O)[C@@H](CC2CCCCC2)NC(=O)[C@H](CCCN)NC(=O)[C@H](C(C)C)NC(=O)[C@H](Cc2ccc(-c3ccccc3)cc2)NC(=O)[C@H](C(C)C)NC(=O)[C@H](Cc2c[nH]c3ccccc23)NC(=O)[C@H](CC(=O)O)NC(=O)[C@H](Cc2ccc(OCC(=O)O)cc2)NC(=O)[C@H](CN)NC(=O)CSC[C@@H](C(=O)N[C@@H](CCN)C(=O)NCCOCCOCC(=O)NCCCCCCCCCCC(=O)O)NC(=O)[C@H](CCCCN)NC1=O` [Compound 2679] ({CH2CO}-[Dap]Y(Carboxymethyl)DWV[Bip]V[Orn][dCha][Dab][Cha]VKC[Dab][AEEA][Aun]-OH; thioether N-14), the half-inhibitory concentration (IC50) stood at 0.0269 µM. Consider `CCCC[C@H]1NC(=O)[C@H](CCCN)NC(=O)[C@H](C(C)C)NC(=O)[C@H](Cc2ccc(-c3ccccc3)cc2)NC(=O)[C@H](C(C)C)NC(=O)[C@H](Cc2cccc(C)c2)NC(=O)[C@H](CC(=O)O)NC(=O)[C@H](Cc2ccc(OCC(=O)O)cc2)NC(=O)[C@H](CN)NC(=O)CSC[C@@H](C(=O)N[C@@H](CCN)C(=O)NCCOCCOCC(=O)NCCCCCCCCCCC(=O)O)NC(=O)[C@H](CN)NC(=O)[C@H](C(C)C)NC(=O)[C@H](CC2CCCCC2)NC(=O)[C@H](CCN)NC1=O` [Compound 2680] ({CH2CO}-[Dap]Y(Carboxymethyl)D[Phe(3-Me)]V[Bip]V[Orn][dNle][Dab][Cha]V[Dap]C[Dab][AEEA][Aun]-OH; thioether N-14), for which the IC50 was determined as 0.0132 µM. For `Cc1cccc(C[C@@H]2NC(=O)[C@H](CC(=O)O)NC(=O)[C@H](Cc3ccc(OCC(=O)O)cc3)NC(=O)[C@H](CN)NC(=O)CSC[C@@H](C(=O)N[C@@H](CCN)C(=O)NCCOCCOCC(=O)NCCCCCCCCCCC(=O)O)NC(=O)[C@H](CN)NC(=O)[C@H](C(C)C)NC(=O)[C@H](CC3CCCCC3)NC(=O)[C@H](CCN)NC(=O)[C@@H](CC3CCCCC3)NC(=O)[C@H](CCCN)NC(=O)[C@H](C(C)C)NC(=O)[C@H](Cc3ccc(-c4ccccc4)cc3)NC(=O)[C@H](C(C)C)NC2=O)c1` [Compound 2681] ({CH2CO}-[Dap]Y(Carboxymethyl)D[Phe(3-Me)]V[Bip]V[Orn][dCha][Dab][Cha]V[Dap]C[Dab][AEEA][Aun]-OH; thioether N-14), the half-maximal inhibitory concentration (IC50) amounted to 0.013 µM. The value for `CCCC[C@H]1NC(=O)[C@H](CCCN)NC(=O)[C@H](C(C)C)NC(=O)[C@H](Cc2ccc(-c3ccccc3)cc2)NC(=O)[C@H](C(C)C)NC(=O)[C@H](Cc2cccc(C)c2)NC(=O)[C@H](CC(=O)O)NC(=O)[C@H](Cc2ccc(OCC(=O)O)cc2)NC(=O)[C@H](CN)NC(=O)CSC[C@@H](C(=O)N[C@@H](CCN)C(=O)NCCOCCOCC(=O)NCCCCCCCCCCC(=O)O)NC(=O)[C@H](CCCNC(=N)N)NC(=O)[C@H](C(C)C)NC(=O)[C@H](CC2CCCCC2)NC(=O)[C@H](CCN)NC1=O` [Compound 2682] ({CH2CO}-[Dap]Y(Carboxymethyl)D[Phe(3-Me)]V[Bip]V[Orn][dNle][Dab][Cha]VRC[Dab][AEEA][Aun]-OH; thioether N-14) was 0.0174 µM; that for `Cc1cccc(C[C@@H]2NC(=O)[C@H](CC(=O)O)NC(=O)[C@H](Cc3ccc(OCC(=O)O)cc3)NC(=O)[C@H](CN)NC(=O)CSC[C@@H](C(=O)N[C@@H](CCN)C(=O)NCCOCCOCC(=O)NCCCCCCCCCCC(=O)O)NC(=O)[C@H](CCCNC(=N)N)NC(=O)[C@H](C(C)C)NC(=O)[C@H](CC3CCCCC3)NC(=O)[C@H](CCN)NC(=O)[C@@H](CC3CCCCC3)NC(=O)[C@H](CCCN)NC(=O)[C@H](C(C)C)NC(=O)[C@H](Cc3ccc(-c4ccccc4)cc3)NC(=O)[C@H](C(C)C)NC2=O)c1` [Compound 2683] ({CH2CO}-[Dap]Y(Carboxymethyl)D[Phe(3-Me)]V[Bip]V[Orn][dCha][Dab][Cha]VRC[Dab][AEEA][Aun]-OH; thioether N-14) was 0.0149 µM. As to `Cc1cccc(C[C@@H]2NC(=O)[C@H](CC(=O)O)NC(=O)[C@H](Cc3ccc(OCC(=O)O)cc3)NC(=O)[C@H](CN)NC(=O)CSC[C@@H](C(=O)N[C@@H](CCN)C(=O)NCCOCCOCC(=O)NCCCCCCCCCCC(=O)O)NC(=O)[C@H](CN)NC(=O)[C@H](C(C)C)NC(=O)[C@H](CC3CCCCC3)NC(=O)[C@H](CCN)NC(=O)[C@@H](CC3CCCCC3)NC(=O)[C@H](CCCN)NC(=O)[C@H](C(C)C)NC(=O)[C@H](Cc3ccc(-c4ccccc4)cc3)NC(=O)[C@H](C(C)C)NC2=O)c1` [Compound 2684] ({CH2CO}-[Dap]Y(Carboxymethyl)D[Phe(3-Me)]V[Bip]V[Orn][dCha][Dab][Cha]V[Dap]C[Dab][AEEA][Aun]-OH; thioether N-14), the IC50 stood at 0.0363 µM. The value for `CCCC[C@H]1NC(=O)[C@H](CCCN)NC(=O)[C@H](C(C)C)NC(=O)[C@H](Cc2ccc(-c3ccccc3)cc2)NC(=O)[C@H](C(C)C)NC(=O)[C@H](Cc2cccc(C)c2)NC(=O)[C@H](CC(=O)O)NC(=O)[C@H](Cc2ccc(OCC(=O)O)cc2)NC(=O)[C@H](CN)NC(=O)CSC[C@@H](C(=O)N[C@@H](CCCCN)C(=O)NCCCCCCCCCCC(=O)O)NC(=O)[C@H](CN)NC(=O)[C@H](C(C)C)NC(=O)[C@H](CC2CCCCC2)NC(=O)[C@H](CCN)NC1=O` [Compound 2685] ({CH2CO}-[Dap]Y(Carboxymethyl)D[Phe(3-Me)]V[Bip]V[Orn][dNle][Dab][Cha]V[Dap]CK[Aun]-OH; thioether N-14) was 0.0116 µM.
